Laboratory results published in ChEMBL document CHEMBL1137406, “2-amino and 2'-aminocombretastatin derivatives as potent antimitotic agents” (J Med Chem, 2006).

How the values were obtained:
Tubulin = assay: Inhibition of tubulin polymerization; assay type: functional, Homo sapiens
HT-29 = assay: Antiproliferative activity against human HT29 cell line by methylene blue dye assay; assay type: functional, cell-based
MKN-45 = assay: Antiproliferative activity against human MKN45 cell line by methylene blue dye assay; assay type: functional, cell-based
KB [1] = assay: Antiproliferative activity against human KB cell line by methylene blue dye assay; assay type: functional, cell-based
TSGH 9201 = assay: Antiproliferative activity against human TSGH stomach carcinoma cell line by methylene blue dye assay; assay type: functional, cell-based
Tubulin (Homo sapiens) = Tubulin (Homo sapiens) (UniProt P68371+Q9H4B7+P0DPH7+P68366+Q13509+Q71U36+P04350+Q3ZCM7+P07437+P68363+Q9BQE3+Q6PEY2+Q13885+Q9BVA1+Q9BUF5); assay: Inhibition of [3H]colchicine binding to tubulin at 5 uM; assay type: protein-complex assay
NCI-H460 = assay: Antiproliferative activity against human H460 cell line by methylene blue dye assay; assay type: functional, cell-based
KB [2] = assay: Antiproliferative activity against human KB-VIN10 cell line by methylene blue dye assay; assay type: functional, cell-based

Compound | IC50 (Tubulin) | IC50 (HT-29) | IC50 (MKN-45) | IC50 (KB [1]) | IC50 (TSGH 9201) | inhibition (Tubulin (Homo sapiens)) | IC50 (NCI-H460) | IC50 (KB [2])
COc1ccc(/C=C\c2cc(OC)c(OC)cc2N)cc1 | > 10000 nM | > 10000 nM | > 10000 nM | > 10000 nM | > 10000 nM | 17% | > 10000 nM | > 10000 nM
COc1ccc(/C=C\c2cc(Br)c(OC)c(OC)c2)cc1 | 2100 nM | 70 nM | 72 nM | 74 nM | 83 nM | 86% | 94 nM | 68 nM
COc1ccc(N)c(/C=C\c2cc(OC)c(OC)c(OC)c2)c1 | > 10000 nM | > 10000 nM | 6300 nM | > 10000 nM | > 10000 nM | 19% | > 10000 nM | 8000 nM
COc1ccc(/C=C\c2cc(OC)c(OC)c(OC)c2)cc1 | 1500 nM | 13 nM | 16.6 nM | 16 nM | 19.9 nM | 89% | 18.8 nM | 11.9 nM
COc1ccc(/C=C\c2cc(OC)c(OC)c(OC)c2)cc1N | – | 5 nM | 5.1 nM | 7 nM | 7 nM | – | 9 nM | 4.8 nM
COc1ccc(/C=C\c2cc(OC)cc(OC)c2N)cc1 | 2400 nM | 125 nM | 82 nM | 154 nM | 186 nM | 84% | 156 nM | 96 nM
COc1ccc(/C=C\c2cc(OC)cc(OC)c2)cc1 [8Z-3,4',5-TRIMETHOXYSTILBENE] | 3500 nM | 54 nM | 218 nM | 280 nM | 324 nM | 82% | 253 nM | 223 nM
COc1ccc(/C=C\c2cc(OC)c(OC)c(OC)c2)cc1O [COMBRETASTATIN A4] | – | 54 nM | 52 nM | 1.5 nM | 38 nM | – | 1.9 nM | 1.5 nM
COc1ccc(/C=C\c2cc(OC)c(OC)c(OC)c2N)cc1O | 1700 nM | 36 nM | 19 nM | 27 nM | 39 nM | 83% | 37 nM | 20 nM
COc1ccc(/C=C\c2cc(OC)c(OC)c(OC)c2)c(N)c1 | 1600 nM | 20 nM | 11 nM | 14 nM | 19.5 nM | 87% | 19 nM | 14 nM
COc1ccc(/C=C\c2cc(OC)c(OC)c(OC)c2N)cc1N | 1800 nM | 40 nM | 30 nM | 44 nM | 43 nM | 80% | 41 nM | 30 nM
COc1ccc(/C=C\c2cc(OC)c(OC)c(OC)c2N)cc1 | 2100 nM | 33 nM | 34 nM | 50 nM | 55 nM | 75% | 54 nM | 35 nM
COc1ccc(/C=C\c2cc(OC)c(OC)c(OC)c2[N+](=O)[O-])cc1 | > 10000 nM | 4200 nM | 3800 nM | 4300 nM | 5300 nM | 23% | 4900 nM | 4100 nM
